Laboratory results as given in patent publication US20260108549A1, “MACROLIDE COMPOUND AND PREPARATION METHOD AND APPLICATION THEREOF” (INSTITUTE OF FEED RESEARCH, CHINESE ACADEMY OF AGRICULTURAL …, priority 2023, published 2026).
Converted amounts (≈) assume the structure as drawn.

How the values were obtained:
[1] = test system: Streptococcus pneumoniae ATCC 49169; test: Antibacterial activity, broth microdilution MIC; type: cell-based; conditions: for MIC: Streptococcus pneumoniae, ATCC49169, broth microdilution, 37° C., 24 hours, working range 0.098-50 μg/mL (Gram-positive); for antibacterial effect compared with tylosin against Streptococcus pneumoniae ATCC 49169: in vitro, comparison in words with positive control tylosin
Method: (§1) Test Example 1 Determination of the antibacterial activity of the compounds of the present invention The antibacterial activity of the compounds obtained in Examples 1-4 of the present invention were determined by using the broth microdilution method with tylosin as a positive control. A broth culture medium was added into a 96-well plate, a prepared compound solution was diluted two-fold serial dilution, and then inoculated with an appropriate amount of bacterial solution. After incubation for 24 hours, the minimum inhibitory concentration of the compound was observed. The culture medium used in the experiment was CAMHB broth, CAMHB+5% defibrillated sheep blood broth. The preserved bacteria strain was inoculated into a serum-supplemented medium and cultured at 37° C. for 16-18 hours. An appropriate amount of bacteria after the completion of subculture and saline were placed into a turbidimetric tube and calibrated to the McFarland standard with a McFarland turbidimeter. The bacterial suspension was diluted 10 times with saline to prepare test bacterial solutions of certain concentrations (5×10^5 to 5×10^6 cfu/mL) for later use. Tylosin and the compounds obtained in the examples were dissolved in methanol to the desired concentration of each compound (1.0 mg/mL), stored in sterilized brown vials, stoppered, and sealed for later use. The working concentration range against Gram-negative bacteria was 0.25 μg/mL to 128 μg/mL; and the working concentration range against Gram-positive bacteria was 0.098 μg/mL to 50 μg/mL. The 96-well plate micro double dilution method was used. […] Finally, the prepared bacterial solution (of a concentration of 5×10^5 to 5×10^6 cfu/mL) was added into the first well to the eleventh well, and the twelfth well was not added with the bacterial solution to serve as a blank control. The 96-well plate was placed in a 37° C. incubator, cultured in a static state for 24 hours to observe the bacterial growth in each well. The solution in the well that inhibited bacterial growth was transparent, and the solution in the well that could not inhibit bacterial growth was turbid. The concentration in the well with a transparent solution was selected to be the minimum inhibitory concentration (MIC) of the sample.

[2] = test system: Escherichia coli ATCC 8099; test: Antibacterial activity, broth microdilution MIC; type: cell-based; conditions: for MIC: Escherichia coli, ATCC8099, broth microdilution, 37° C., 24 hours, working range 0.25-128 μg/mL (Gram-negative); for antibacterial effect compared with tylosin against Escherichia coli 8099: in vitro, comparison in words with positive control tylosin
Method: as §1

Row | Compound | MIC [1] [µg/mL] | MIC [2] [µg/mL] | antibacterial effect compared with tylosin against Streptococcus pneumoniae ATCC 49169 [1] | antibacterial effect compared with tylosin against Escherichia coli 8099 [2]
1 | CC[C@H]1OC(=O)C[C@@H](O)[C@H](C)[C@@H](O[C@@H]2O[C@H](C)[C@@H](O[C@H]3C[C@@](C)(O)[C@@H](O)[C@H](C)O3)[C@H](N(C)C)[C@H]2O)[C@@H](CCNCCCO)C[C@@H](C)C(=O)/C=C/C(C)=C/[C@@H]1CO[C@@H]1O[C@H](C)[C@@H](O)[C@@H](OC)[C@H]1OC [Ia, 20-(3-hydroxypropylamino) tylosin] | 0.391 (≈ 0.401 µM) | 128 (≈ 131 µM) | slightly better antibacterial effect than tylosin | comparable antibacterial effect to tylosin
2 | CC[C@H]1OC(=O)C[C@@H](O)[C@H](C)[C@@H](O[C@@H]2O[C@H](C)[C@@H](O[C@H]3C[C@@](C)(O)[C@@H](O)[C@H](C)O3)[C@H](N(C)C)[C@H]2O)[C@@H](CCN(CCO)CCO)C[C@@H](C)C(=O)/C=C/C(C)=C/[C@@H]1CO[C@@H]1O[C@H](C)[C@@H](O)[C@@H](OC)[C@H]1OC [Ib, 20-(bis(2-hydroxyethylamino)) tylosin] | 0.781 (≈ 0.777 µM) | 128 (≈ 127 µM) |  | 
3 | CC[C@H]1OC(=O)C[C@@H](O)[C@H](C)[C@@H](O[C@@H]2O[C@H](C)[C@@H](O[C@H]3C[C@@](C)(O)[C@@H](O)[C@H](C)O3)[C@H](N(C)C)[C@H]2O)[C@@H](CCN2CCC[C@@H]2CO)C[C@@H](C)C(=O)/C=C/C(C)=C/[C@@H]1CO[C@@H]1O[C@H](C)[C@@H](O)[C@@H](OC)[C@H]1OC [Ic, 20-((R)-2-hydroxymethyltetrahydropyrrolyl) tylosin] | 0.195 (≈ 0.195 µM) | 64 (≈ 63.9 µM) | superior antibacterial effect to tylosin | superior antibacterial effect to tylosin

The next lines start with results.

Row | MIC [1] [µg/mL] | MIC [2] [µg/mL] | Compound | antibacterial effect compared with tylosin against Streptococcus pneumoniae ATCC 49169 [1] | antibacterial effect compared with tylosin against Escherichia coli 8099 [2]
4 | 0.781 (≈ 0.78 µM) | 128 (≈ 128 µM) | CC[C@H]1OC(=O)C[C@@H](O)[C@H](C)[C@@H](O[C@@H]2O[C@H](C)[C@@H](O[C@H]3C[C@@](C)(O)[C@@H](O)[C@H](C)O3)[C@H](N(C)C)[C@H]2O)[C@@H](CCN2CCC[C@H]2CO)C[C@@H](C)C(=O)/C=C/C(C)=C/[C@@H]1CO[C@@H]1O[C@H](C)[C@@H](O)[C@@H](OC)[C@H]1OC [Id, 20-((S)-2-hydroxymethyltetrahydropyrrolyl) tylosin] |  | 
5 | 0.781 (≈ 0.853 µM) | 128 (≈ 140 µM) | CC[C@H]1OC(=O)C[C@@H](O)[C@H](C)[C@@H](O[C@@H]2O[C@H](C)[C@@H](O[C@H]3C[C@@](C)(O)[C@@H](O)[C@H](C)O3)[C@H](N(C)C)[C@H]2O)[C@@H](CC=O)C[C@@H](C)C(=O)/C=C/C(C)=C/[C@@H]1CO[C@@H]1O[C@H](C)[C@@H](O)[C@@H](OC)[C@H]1OC [Tylosin, reference compound] |  | 
